Measured values from ChEMBL document CHEMBL4325890, “Novel tyrosyl-DNA phosphodiesterase 1 inhibitors enhance the therapeutic impact of topoteсan on in vivo tumor models” (Eur J Med Chem, 2019).

Columns and labels:
[1] = target: T1, Tyrosyl-DNA phosphodiesterase 1 (Homo sapiens, UniProt Q9NUW8)
[2] = target: T1, Tyrosyl-DNA phosphodiesterase 1; assay: Binding affinity to recombinant human Tdp1 (149 to 608 residues) expressed in Escherichia coli BL21 (DE3) by tryptophan fluorescence quenching assay
[3] = Stability of the compound assessed as imine hydrolysis at pH 1 HCl solution incubated for 24 hrs under shaking condition; type: physicochemical; details: buffer, pH 1, 24 h
[4] = target: T1, Tyrosyl-DNA phosphodiesterase 1; assay: Inhibition of Tdp1 (unknown origin)
[5] = Oral bioavailability in rabbit at 20 mg/kg by HPLC analysis; type: ADME, organism-based, Oryctolagus cuniculus; details: in vivo
[6] = target: T1, Tyrosyl-DNA phosphodiesterase 1; remark: listed apart in the source
[7] = Cytotoxicity against mouse LLTC cells after 3 days by [3H]-thymidine incorporation assay; type: cell-based
[8] = Toxicity in C57BL/6 mouse implanted with C57BL mouse LLC cells assessed as state and behavioral changes at 100 mg/kg, ig administered as single dose; type: organism-based; details: in vivo, po
[9] = Toxicity in C57BL/6 mouse implanted with C57BL mouse LLC cells assessed as change in body weight at 100 mg/kg, ig administered as single dose in presence of topotecan (reference value: 90%); type: organism-based; details: in vivo, po
[10] = Acute toxicity in ig dosed specific pathogen free CD-1 mouse; type: organism-based; details: in vivo, po
[11] = Toxicity in C57BL/6 mouse implanted with C57BL mouse LLC cells assessed as death at 100 mg/kg, ig in presence of topotecan; type: organism-based; details: in vivo, po
[12] = Toxicity in C57BL/6 mouse implanted with C57BL mouse LLC cells assessed as change in body weight at 100 mg/kg, ig administered as single dose (reference value: 90%); type: organism-based; details: in vivo, po
[13] = Toxicity in C57BL/6 mouse implanted with C57BL mouse LLC cells assessed as liver index at 100 mg/kg, ig administered as single dose measured 17 days post-transplantation (reference value: 5.8 +/- 0.38%); type: organism-based; details: in vivo, po, 408 h
[14] = tested on: Lewis lung carcinoma cell line; assay: Potentiation of topotecan-induced anticancer activity against C57BL mouse LLC cells implanted in C57BL/6 mouse assessed as tumor weight at 100 mg/kg, ig administered as single dose measured 17 days post transplantation (reference value: 2.9 +/- 0.28 g); type: functional
[15] = Toxicity in C57BL/6 mouse implanted with C57BL mouse LLC cells assessed as death at 100 mg/kg, ig; type: organism-based; details: in vivo, po
[16] = tested on: Lewis lung carcinoma cell line; assay: Cytotoxicity against C57BL mouse LLC cells implanted in C57BL/6 mouse assessed as tumor weight at 100 mg/kg, ig administered as single dose measured 17 days post transplantation (reference value: 3.3 +/- 0.28 g); type: organism-based; details: in vivo, po, 408 h
[17] = Toxicity in C57BL/6 mouse implanted with C57BL mouse LLC cells assessed as spleen weight at 100 mg/kg, ig administered as single dose measured 17 days post-transplantation (reference value: 252 +/- 12 mg); type: organism-based; details: in vivo, po, 408 h
[18] = Toxicity in C57BL/6 mouse implanted with C57BL mouse LLC cells assessed as state and behavioral changes at 100 mg/kg, ig administered as single dose in presence of topotecan; type: organism-based; details: in vivo, po
[19] = Cytotoxicity against human MCF7 cells after 3 days by [3H]-thymidine incorporation assay; type: cell-based
[20] = Toxicity in C57BL/6 mouse implanted with C57BL mouse LLC cells assessed as liver index at 100 mg/kg, ig administered as single dose measured 17 days post-transplantation in presence of topotecan (reference value: 5.8 +/- 0.38%); type: organism-based; details: in vivo, po, 408 h
[21] = Toxicity in C57BL/6 mouse implanted with C57BL mouse LLC cells assessed as spleen weight at 100 mg/kg, ig administered as single dose measured 17 days post-transplantation in presence of topotecan (reference value: 252 +/- 12 mg); type: organism-based; details: in vivo, po, 408 h
[22] = tested on: Lewis lung carcinoma cell line; assay: Cytotoxicity against C57BL mouse LLC cells implanted in C57BL/6 mouse assessed as effect on number of metastatic nodules in lung at 100 mg/kg, ig administered as single dose measured 17 days post transplantation by microscopic analysis; type: organism-based; details: in vivo, po, 408 h
[23] = Toxicity in C57BL/6 mouse implanted with C57BL mouse LLC cells assessed as state and behavioral changes at 1.5 mg/kg, ip administered on day 4, 5, 7 and 9 post-transplantation; type: organism-based; details: in vivo
[24] = Toxicity in C57BL/6 mouse implanted with C57BL mouse LLC cells assessed as change in body weight at 1.5 mg/kg, ip administered on day 4, 5, 7 and 9 post-transplantation (reference value: 90%); type: organism-based; details: in vivo
[25] = Toxicity in C57BL/6 mouse implanted with C57BL mouse LLC cells assessed as spleen weight at 1.5 mg/kg, ip administered on day 4, 5, 7 and 9 post-transplantation measured 17 days post-transplantation (reference value: 252 +/- 12 mg); type: organism-based; details: in vivo, 408 h
[26] = Toxicity in C57BL/6 mouse implanted with C57BL mouse LLC cells assessed as liver index at 1.5 mg/kg, ip administered on day 4, 5, 7 and 9 post-transplantation measured 17 days post-transplantation (reference value: 5.8 +/- 0.38%); type: organism-based; details: in vivo, 408 h
[27] = Toxicity in C57BL/6 mouse implanted with C57BL mouse LLC cells assessed as death at 1.5 mg/kg, ip administered on day 4, 5, 7 and 9 post-transplantation; type: organism-based; details: in vivo

T1 sequence (Q9NUW8 whole entry, the tested form may be a part): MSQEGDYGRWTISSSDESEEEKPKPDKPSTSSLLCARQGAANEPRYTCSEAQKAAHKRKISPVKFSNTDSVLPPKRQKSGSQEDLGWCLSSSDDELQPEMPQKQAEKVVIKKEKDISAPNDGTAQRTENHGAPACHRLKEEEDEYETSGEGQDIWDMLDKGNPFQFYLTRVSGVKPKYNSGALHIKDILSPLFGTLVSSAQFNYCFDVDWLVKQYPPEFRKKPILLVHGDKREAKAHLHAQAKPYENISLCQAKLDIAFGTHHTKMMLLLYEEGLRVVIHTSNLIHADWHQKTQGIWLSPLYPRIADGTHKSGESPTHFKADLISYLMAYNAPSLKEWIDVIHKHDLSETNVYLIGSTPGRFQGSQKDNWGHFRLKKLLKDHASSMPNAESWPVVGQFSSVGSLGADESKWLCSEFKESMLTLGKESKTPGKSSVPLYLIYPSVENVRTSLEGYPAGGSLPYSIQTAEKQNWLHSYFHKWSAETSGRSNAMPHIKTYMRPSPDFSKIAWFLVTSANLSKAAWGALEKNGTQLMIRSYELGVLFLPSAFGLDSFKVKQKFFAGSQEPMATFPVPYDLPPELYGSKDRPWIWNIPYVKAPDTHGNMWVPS

IC50 [1] [µM] | Kd [2] [µM] | Stability [3] | Compound | other results
0.15 | 35.2 | Stable | CC(=O)C1=C(O)C=C2Oc3c(-c4csc(N/N=C/c5ccc(F)cc5)n4)c(O)c(C)c(O)c3[C@@]2(C)C1=O | –
0.457 | 31.1 | Stable | CC(=O)C1=C(O)C=C2Oc3c(-c4csc(N/N=C/c5ccc(O)cc5)n4)c(O)c(C)c(O)c3[C@@]2(C)C1=O | –
0.086 | 6.2 | Stable | CC(=O)C1=C(O)C=C2Oc3c(-c4csc(N/N=C/c5cccc([N+](=O)[O-])c5)n4)c(O)c(C)c(O)c3[C@@]2(C)C1=O | –
5.9 | – | – | CNc1nc(-c2c(O)c(C)c(O)c3c2OC2=CC(O)=C(C(C)=O)C(=O)[C@@]23C)cs1 | –
0.068 | 9.46 | Stable | CC(=O)C1=C(O)C=C2Oc3c(-c4csc(N/N=C/c5ccc(Cl)cc5)n4)c(O)c(C)c(O)c3[C@@]2(C)C1=O | –
0.172 | 7.14 | Stable | CC(=O)C1=C(O)C=C2Oc3c(-c4csc(N/N=C/c5ccccc5)n4)c(O)c(C)c(O)c3[C@@]2(C)C1=O | –
0.192 | 44.6 | Stable | COc1cc(/C=N/Nc2nc(-c3c(O)c(C)c(O)c4c3OC3=CC(O)=C(C(C)=O)C(=O)[C@@]34C)cs2)ccc1O | –
0.158 | 8.65 | Stable | COc1ccc(/C=N/Nc2nc(-c3c(O)c(C)c(O)c4c3OC3=CC(O)=C(C(C)=O)C(=O)[C@@]34C)cs2)cc1 | –
1.25 | – | – | C=CCNc1nc(-c2c(O)c(C)c(O)c3c2OC2=CC(O)=C(C(C)=O)C(=O)[C@@]23C)cs1 | –
0.035 | 10.7 | Stable | CC(=O)C1=C(O)C=C2Oc3c(-c4csc(N/N=C/c5ccc([N+](=O)[O-])cc5)n4)c(O)c(C)c(O)c3[C@@]2(C)C1=O | –
0.61 | – | – | CC(=O)C1=C(O)C=C2Oc3c(-c4csc(Nc5ccccc5)n4)c(O)c(C)c(O)c3[C@@]2(C)C1=O | –

More lines, now with the values behind:

Compound | IC50 [1] [µM] | Kd [2] [µM] | Stability [3] | other results
CC(=O)C1=C(O)C=C2Oc3c(C(C)=O)c(O)c(C)c(O)c3[C@@]2(C)C1=O [(+)-USNIC ACID] | > 50 | – | – | –
CC(C)=CCCC(C)CCNC1C2CC3CC(C2)CC1C3 (stereo not given) | 3.5 | – | – | –
CC(=O)C1=C(O)C=C2Oc3c(-c4csc(-c5ccccc5)n4)c(O)c(C)c(O)c3[C@@]2(C)C1=O | 1.12 | – | – | –
CC(=O)C1=C(O)C=C2Oc3c(-c4csc(C)n4)c(O)c(C)c(O)c3[C@@]2(C)C1=O | 4.1 | – | – | –
CC(=O)C1=C(O)C=C2Oc3c(C(=O)CSC#N)c(O)c(C)c(O)c3[C@@]2(C)C1=O | – | – | – | IC50 [4]: 1.01 µM
CC(=O)c1c([O-])c(C)c([O-])c2c1OC1=CC(=O)C(C(C)=O)C(=O)[C@@]12C.[Na+].[Na+] (stereo not given in full) | – | – | – | bioavailability [5]: 78%
COc1cc(/C=C2\SC(=S)N(c3ccc([N+](=O)[O-])cc3)C2=O)cc(Br)c1O | – | – | – | IC50 [6]: 1.08 µM
CC(=O)C1=C(O)C=C2Oc3c(-c4csc(N)n4)c(O)c(C)c(O)c3[C@@]2(C)C1=O | 3.8 | – | – | –
CC(=O)C1=C(O)C=C2Oc3c(-c4csc(-c5cccnc5)n4)c(O)c(C)c(O)c3[C@@]2(C)C1=O | 1.21 | – | – | –
CC(=O)C1=C(O)C=C2Oc3c(-c4csc(N/N=C/c5ccc(Br)cc5)n4)c(O)c(C)c(O)c3[C@@]2(C)C1=O | – | 7.02 | Stable | CC50 at 72 h [7]: 1.67 µM; Activity [8]: Non-Toxic; Activity [9]: 89.7%; LD50 [10]: > 5000 mg/kg; Activity [11]: Non-Toxic; Activity [12]: 88.2%; Activity [13]: 6%; Activity [14]: 1.4 g; Activity [15]: Non-Toxic; Activity [16]: 3.3 g; Activity [17]: 281 mg; Activity [18]: Non-Toxic; CC50 at 72 h [19]: 1.69 µM; Activity [20]: 6.5%; Activity [21]: 326 mg; Activity [22]: Non-Toxic
CC[C@@]1(O)C(=O)OCc2c1cc1n(c2=O)Cc2cc3c(CN(C)C)c(O)ccc3nc2-1 [TOPOTECAN] | – | – | – | Activity [23]: Non-Toxic; Activity [24]: 88.1%; Activity [25]: 260 mg; Activity [26]: 5.8%; Activity [27]: Non-Toxic
Cc1ccc(C)n1-c1ccc(Cl)c(C(=O)O)c1 | – | – | – | IC50 [4]: 0.11 µM
